Data taken from patent publication US20250179103A1, “6-OXODECAHYDROPYRROLO[1,2-A][1,5]DIAZOCINE AND 6-OXODECAHYDRO-4H-PYRROLO[2,1-D][1,5]THIAZOCINE DERIVATIVES AS STAT3 AND STAT6 MODULATORS FOR THE TREATMENT OF CANCER AND INFLAMMATORY CONDITIONS” (Recludix Pharma, Inc., priority 2022, published 2025).

Experiments:
[1] = tested on: pY641-STAT6 in Peripheral Blood Mononuclear Cells (PBMC); experiment: MSD-pSTAT-PBMC Assay (pSTAT6, IL-4 stimulated); format: cell-based, Human; conditions: Homo sapiens, compound 3 hrs, then 1 ng/mL IL-4 for 10 min
Method in brief: (§1)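 Phospho-STAT readout used MSD electrochemiluminescence with total STAT3 or STAT6 capture in lysates of cryopreserved human PBMCs. Cells had 3 h compound exposure before a 10 min cytokine pulse: IL-6 10 ng/mL for pSTAT3, IL-4 1 ng/mL for pSTAT6. IC50 came from background-subtracted, DMSO-normalised signal, with categories A≤100 nM up to D>3 μM.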

[2] = tested on: pY705-STAT3 in Peripheral Blood Mononuclear Cells (PBMC); experiment: MSD-pSTAT-PBMC Assay (pSTAT3, IL-6 stimulated); format: cell-based, Human; conditions: Homo sapiens, compound 3 hrs, then 10 ng/mL IL-6 for 10 min
Method in brief: as §1

SMILES | IC50 [1] [µM] | IC50 [2] [µM]
COCC(C)(C)OC(=O)OCOP(=O)(OCOC(=O)OC(C)(C)COC)C(F)(F)c1ccc2sc(C(=O)N[C@H]3CN(C(C)=O)CC[C@H]4CC[C@@H](C(=O)N(C)c5ccccc5)N4C3=O)cc2c1 [Compound 287, ((((2-(((5S, 8S,10aR)-3-acetyl-8-(methyl (phenyl)carbamoyl)-6-oxodecahydro-pyrrolo[1,2-a][1,5]diazocin-5-yl)carbamoyl)benzo[b]thiophen-5-yl)difluoro-methyl)phosphoryl)bis(oxy)) bis(methylene) bis(1-methoxy-2-methylpropan-2-yl) bis(carbonate)] | > 3 | > 3
COC(=O)[C@@H]1CCCN1C(=O)OCOP(=O)(OCOC(=O)N1CCC[C@H]1C(=O)OC)C(F)(F)c1ccc2sc(C(=O)N[C@H]3CN(C(C)=O)CC[C@H]4CC[C@@H](C(=O)N(C)c5ccccc5)N4C3=O)cc2c1 [Compound 288, O′1,O1-(((((2-(((5S, 8S,10aR)-3-acetyl-8-(methyl (phenyl)carbamoyl)-6-oxodecahydro-pyrrolo[1,2-a][1,5]diazocin-5-yl)carbamoyl)benzo[b]thiophen-5-yl)difluoro-methyl)phos-phoryl)bis(oxy))bis (methylene)) 2,2′-dimethyl (2S,2′S)-bis (pyrrolidine-1,2-dicarboxylate)] | > 3 | > 3
CC(=O)N1CC[C@H]2CC[C@@H](C(=O)N(C)c3ccccc3)N2C(=O)[C@@H](NC(=O)c2cc3cc(C(F)(F)P(=O)(OCCSC(=O)C(C)(C)C)Oc4ccccc4)ccc3s2)C1 (stereo partly drawn) [Compound 289, S-(2-((((2-(((5S,8S, 10aR)-3-acetyl-8-(methyl (phenyl)carbamoyl)-6-oxodecahydro-pyrrolo[1,2-a][1,5]diazocin-5-yl)carbamoyl)benzo[b]thiophen-5-yl)difluoro-methyl) (phenoxy)phosphoryl)oxy)ethyl)2,2-dimethylpro-panethioate] | > 3 | > 3
CC(=O)N1CC[C@H]2CC[C@@H](C(=O)N(C)c3ccc4nnccc4c3)N2C(=O)[C@@H](NC(=O)c2cc3cc(C(F)(F)P(=O)(OCOC(=O)C(C)(C)C)OCOC(=O)C(C)(C)C)ccc3s2)C1 [Compound 290, ((((2-(((5S,8S, 10aR)-3-acetyl-8-(cinnolin-6-yl(methyl)carbamoyl)-6-oxodecahydro-pyrrolo[1,2-a][1,5]diazocin-5-yl)carbamoyl)benzo[b]thiophen-5-yl)difluoro-methyl)phos-phoryl)bis(oxy)) bis(methylene) bis(2,2-dimethylpro-panoate)] | 0.1 to 1 | 1 to 3
CC(=O)N1CC[C@H]2CC[C@@H](C(=O)N(C)c3ccccc3)N2C(=O)[C@@H](NC(=O)c2cc3cc(C(F)(F)P(=O)(OCCSC(=O)C(C)(C)C)OCCSC(=O)C(C)(C)C)ccc3s2)C1 [Compound 291, S,S′-(((((2-(((5S,8S, 10aR)-3-acetyl-8-(methyl (phenyl)carbamoyl)-6-oxodecahydro-pyrrolo[1,2-a][1,5]diazocin-5-yl)carbamoyl)benzo[b]thiophen-5-yl)difluoro-methyl)phos-phoryl)bis(oxy))bis(ethane-2,1-diyl)) bis(2,2-dimethylpro-panethioate)] | > 3 | > 3
CCCN(CCC)C(=O)OCOP(=O)(OCOC(=O)N(CCC)CCC)C(F)(F)c1ccc2sc(C(=O)N[C@@H]3CN(C(C)=O)CC[C@@H]4CC[C@H](C(=O)N(C)c5ccccc5)N4C3=O)cc2c1 [Compound 292, ((((2-(((5R,8R, 10aS)-3-acetyl-8-(methyl (phenyl)carbamoyl)-6-oxodecahydro-pyrrolo[1,2-a][1,5]diazocin-5-yl)carbamoyl)benzo[b]thiophen-5-yl)difluoro-methyl)phos-phoryl)bis(oxy)) bis(methylene) bis(dipropyl-carbamate)] | > 3 | > 3
CCCOC(=O)OC(C)OP(=O)(OC(C)OC(=O)OCCC)C(F)(F)c1ccc2sc(C(=O)N[C@H]3CN(C(C)=O)CC[C@H]4CC[C@@H](C(=O)N(C)c5ccccc5)N4C3=O)cc2c1 (stereo partly drawn) [Compound 293, ((((2-(((5S,8S, 10aR)-3-acetyl-8-(methyl (phenyl)carbamoyl)-6-oxodecahydro-pyrrolo[1,2-a][1,5]diazocin-5-yl)carbamoyl)benzo[b]thiophen-5-yl)difluoro-methyl)phos-phoryl)bis(oxy)) bis(ethane-1,1-diyl) dipropyl bis(carbonate)] | > 3 | > 3
CC(=O)N1CC[C@H]2CC[C@@H](C(=O)Nc3ccc4nnccc4c3)N2C(=O)[C@@H](NC(=O)c2cc3cc(C(F)(F)P(=O)(OCOC(=O)C(C)(C)C)OCOC(=O)C(C)(C)C)ccc3s2)C1 [Compound 294, ((((2-(((5S,8S, 10aR)-3-acetyl-8-(cinnolin-6-ylcarbamoyl)-6-oxodecahydro-pyrrolo[1,2-a][1,5]diazocin-5-yl)carbamoyl)benzo[b]thiophen-5-yl)difluoro-methyl)phos-phoryl)bis(oxy)) bis(methylene) bis(2,2-dimethylpro-panoate)] | 0.1 to 1 | 0.1 to 1
CC(=O)N1CC[C@H]2CC[C@@H](C(=O)N(C)c3ccccc3)N2C(=O)[C@@H](NC(=O)c2cc3cc(C(F)P(=O)(OCOC(=O)C(C)(C)C)OCOC(=O)C(C)(C)C)ccc3s2)C1 (stereo partly drawn) [Compound 295, ((((2-(((5S,8S, 10aR)-3-acetyl-8-(methyl (phenyl)carbamoyl)-6-oxodecahydro-pyrrolo[1,2-a][1,5]diazocin-5-yl)carbamoyl)benzo[b]thiophen-5-yl)fluoro-methyl)phos-phoryl)bis(oxy))bis (methylene) bis(2,2-dimethylpro-panoate)] | 0.1 to 1 | 0.1 to 1
CC(=O)N1CC[C@H]2CC[C@@H](C(=O)N(C)c3ccccc3)N2C(=O)[C@@H](NC(=O)c2cc3cc(C(F)(F)P(=O)(OCOC(=O)C(C)(C)C)OCOC(=O)C(C)(C)C)ccc3s2)C1 [Compound 296, ((((2-(((5S,8S, 10aR)-3-acetyl-8-(methyl (phenyl)carbamoyl)-6-oxodecahydro-pyrrolo[1,2-a][1,5]diazocin-5-yl)carbamoyl)benzo[b]thiophen-5-yl)difluoro-methyl)phos-phoryl)bis(oxy)) bis(methylene) bis(2,2-dimethylpro-panoate)] | ≤ 0.1 | 0.1 to 1
CC(=O)N1CC[C@H]2CC[C@@H](C(=O)N(C)c3ccccc3)N2C(=O)[C@@H](NC(=O)c2cc3cc(C(F)(F)P(=O)(OCOC(=O)C(C)(C)C)OCOC(=O)C(C)(C)C)ccc3[nH]2)C1 [Compound 300, ((((2-(((5S, 8S,10aR)-3-acetyl-8-(methyl (phenyl)carbamoyl)-6-oxodecahydro-pyrrolo[1,2-a][1,5]diazocin-5-yl)carbamoyl)-1H-indol-5-yl)difluoro-methyl)phos-phoryl)bis(oxy)) bis(methylene) bis(2,2-dimethylpro-panoate)] | 0.1 to 1 | 0.1 to 1
CC(=O)N1CC[C@H]2CC[C@@H](C(=O)N3C[C@H](O)[C@@H](n4ccnn4)C3)N2C(=O)[C@@H](NC(=O)c2ccc3ccc(C(F)(F)P(=O)(OCCSC(=O)CC(C)C)OCCSC(=O)CC(C)C)cc3c2)C1 [Compound 305, S,S′-(((((7-(((5S,8S, 10aR)-3-acetyl-8-((3S,4S)-3-hydroxy-4-(1H-1,2,3-triazol-1-yl)pyrrolidine-1-carbonyl)-6-oxodecahydro-pyrrolo[1,2-a][1,5]diazocin-5-yl)carbamoyl)naphthalen-2-yl)difluoro-methyl)phos-phoryl)bis(oxy))bis(ethane-2,1-diyl)) bis(3-methylbutane-thioate)] | > 3 | 1 to 3
CC(=O)N1CC[C@H]2CC[C@@H](C(=O)N(C)c3ccccc3)N2C(=O)[C@@H](NC(=O)c2cc3cc(C(=O)P(=O)(OCOC(=O)C(C)(C)C)OCOC(=O)C(C)(C)C)ccc3s2)C1 [Compound 307, (((2-(((5S, 8S,10aR)-3-acetyl-8-(methyl (phenyl)carbamoyl)-6-oxo-decahydro-pyrrolo[1,2-a][1,5]diazocin-5-yl)carbamoyl)benzo[b]thiophene-5-carbonyl)phosphoryl)bis(oxy))bis (methylene) bis(2,2-dimethylpro-panoate)] | > 3 | > 3
CC(=O)N1CC[C@H]2CC[C@@H](C(=O)Nc3ccc(-c4ccccc4)cc3)N2C(=O)[C@@H](NC(=O)c2cc3cc(C(F)(F)P(=O)(OCOC(=O)C(C)(C)C)OCOC(=O)C(C)(C)C)ccc3[nH]2)C1 [Compound 308, ((((2-(((5S, 8S,10aR)-8-([1,1′-biphenyl]-4-ylcarbamoyl)-3-acetyl-6-oxodecahydro-pyrrolo[1,2-a][1,5]diazocin-5-yl)carbamoyl)-1H-indol-5-yl)difluoro-methyl)phos-phoryl)bis(oxy)) bis(methylene) bis(2,2-dimethylpro-panoate)] | 0.1 to 1 | 0.1 to 1
CC(=O)N1CC[C@H]2CC[C@@H](C(=O)Nc3cnc(S(C)(=O)=O)nc3)N2C(=O)[C@@H](NC(=O)c2cc3cc(C(F)(F)P(=O)(OCOC(=O)C(C)(C)C)OCOC(=O)C(C)(C)C)ccc3s2)C1 [Compound 309, ((((2-(((5S, 8S,10aR)-3-acetyl-8-((2-(methyl-sulfonyl)pyrimidin-5-yl)carbamoyl)-6-oxodecahydro-pyrrolo[1,2-a][1,5]diazocin-5-yl)carbamoyl)benzo[b]thiophen-5-yl)difluoro-methyl)phos-phoryl)bis(oxy)) bis(methylene) bis(2,2-dimethylpro-panoate)] | 1 to 3 | > 3
